Measured values taken from US20230123140A1, “DOSE TREATMENTS OF TAUOPATHIES” (AC Immune SA, priority 2020, published 2023).

Columns and labels:
Format in all cases: in vivo, mouse
CD1 mice = assay: 4-week toxicity study in mice followed by 2 weeks of recovery; conditions: 1000 mg/kg/day p.o., Day 9
Experimental: (§1) This study was conducted to evaluate the potential toxicity of ACI-3024 when given daily by oral gavage to CD1 mice for 4 weeks, followed by a 2-week recovery period. Doses of 100, 300 and 1000 mg/kg were administered by p.o. to 10 animals/sex/group daily. The control animals were administered vehicle. The dose volume was 10 mL/kg for all groups.
(§2) Clinical signs, body weights, food consumption, ophthalmology, clinical pathology were evaluated. For each sex/group, a complete necropsy was conducted on 10 animals at the end of the dosing period and on 6 (only control and high dose groups) surviving animals at end of the recovery period.

[1] = as above; conditions: both sexes, CD1, mouse, in vivo, po
Experimental: as §1, §2

[2] = tested on: Central Nervous System function; assay: Central nervous system evaluation in mice (functional observation battery); conditions: single oral administration 100, 300 or 750 mg/kg, female CD1 mice
Experimental: This study was conducted to evaluate the potential modifications of central nervous system (CNS) activity by ACI-3024 when given as single dose to CD1 mice.
Doses of 100, 300 and 750 mg/kg were administered by oral gavage to 8 females/group. The control animals were administered vehicle. The dose volume was 10 mL/kg for all groups. Approximately 2, 4, 6 and 24 hours after the treatment, each mouse was subjected to a functional observation battery in order to investigate possible treatment-induced effects on the CNS or in any of its domains: neurologic, autonomic and behavioral.

Fc1ccc2c3c([nH]c2c1)CCN(c1ccc2oc(N4CCOCC4)nc2c1)C3 [ACI-3024]
mortality / premature euthanasia (CD1 mice): only one female animal was prematurely euthanized
NOAEL at 4 weeks [1]: 300 mg/kg/day
effect on Central Nervous System function [2]: no effect
